Patent US12440484B2, “1,3,4-oxadiazole homophthalimide derivative compounds as histone deacetylase 6 inhibitor, and the pharmaceutical composition comprising the same” (Chong Kun Dang Pharmaceutical Corp., priority 2019, dated 2025)

Assays:
HDAC1 = HDAC1 (Homo sapiens (Human), UniProt Q13547); assay: HDAC enzyme activity inhibition (in vitro), HDAC1 Fluorimetric Drug Discovery Assay Kit; format: biochemical; settings: samples at 100, 1000 and 10000 nM; 37° C. 60 minutes; fluorescence Ex 390, Em 460
Chain of HDAC1 (Q13547 whole entry): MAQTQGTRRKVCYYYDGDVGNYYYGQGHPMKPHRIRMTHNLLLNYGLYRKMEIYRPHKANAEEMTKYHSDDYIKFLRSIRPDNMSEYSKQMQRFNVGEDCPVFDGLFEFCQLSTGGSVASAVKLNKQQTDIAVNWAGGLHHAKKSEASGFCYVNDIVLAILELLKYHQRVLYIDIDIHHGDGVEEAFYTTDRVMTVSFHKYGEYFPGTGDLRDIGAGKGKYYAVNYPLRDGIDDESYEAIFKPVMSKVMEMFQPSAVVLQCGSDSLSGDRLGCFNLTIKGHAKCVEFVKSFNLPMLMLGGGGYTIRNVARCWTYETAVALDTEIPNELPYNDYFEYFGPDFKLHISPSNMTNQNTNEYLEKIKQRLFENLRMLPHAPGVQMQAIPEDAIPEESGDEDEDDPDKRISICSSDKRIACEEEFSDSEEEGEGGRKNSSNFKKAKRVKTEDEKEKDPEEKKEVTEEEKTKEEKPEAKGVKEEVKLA

HDAC6 human recombinant = HDAC6 human recombinant (Homo sapiens (Human), UniProt Q9UBN7); assay: HDAC enzyme activity inhibition (in vitro), HDAC6 assay; format: biochemical; settings: samples at 0.1, 1, 10, 100 and 1000 nM; 37° C. 60 minutes; fluorescence Ex 390, Em 460
Chain of HDAC6 human recombinant (Q9UBN7 whole entry): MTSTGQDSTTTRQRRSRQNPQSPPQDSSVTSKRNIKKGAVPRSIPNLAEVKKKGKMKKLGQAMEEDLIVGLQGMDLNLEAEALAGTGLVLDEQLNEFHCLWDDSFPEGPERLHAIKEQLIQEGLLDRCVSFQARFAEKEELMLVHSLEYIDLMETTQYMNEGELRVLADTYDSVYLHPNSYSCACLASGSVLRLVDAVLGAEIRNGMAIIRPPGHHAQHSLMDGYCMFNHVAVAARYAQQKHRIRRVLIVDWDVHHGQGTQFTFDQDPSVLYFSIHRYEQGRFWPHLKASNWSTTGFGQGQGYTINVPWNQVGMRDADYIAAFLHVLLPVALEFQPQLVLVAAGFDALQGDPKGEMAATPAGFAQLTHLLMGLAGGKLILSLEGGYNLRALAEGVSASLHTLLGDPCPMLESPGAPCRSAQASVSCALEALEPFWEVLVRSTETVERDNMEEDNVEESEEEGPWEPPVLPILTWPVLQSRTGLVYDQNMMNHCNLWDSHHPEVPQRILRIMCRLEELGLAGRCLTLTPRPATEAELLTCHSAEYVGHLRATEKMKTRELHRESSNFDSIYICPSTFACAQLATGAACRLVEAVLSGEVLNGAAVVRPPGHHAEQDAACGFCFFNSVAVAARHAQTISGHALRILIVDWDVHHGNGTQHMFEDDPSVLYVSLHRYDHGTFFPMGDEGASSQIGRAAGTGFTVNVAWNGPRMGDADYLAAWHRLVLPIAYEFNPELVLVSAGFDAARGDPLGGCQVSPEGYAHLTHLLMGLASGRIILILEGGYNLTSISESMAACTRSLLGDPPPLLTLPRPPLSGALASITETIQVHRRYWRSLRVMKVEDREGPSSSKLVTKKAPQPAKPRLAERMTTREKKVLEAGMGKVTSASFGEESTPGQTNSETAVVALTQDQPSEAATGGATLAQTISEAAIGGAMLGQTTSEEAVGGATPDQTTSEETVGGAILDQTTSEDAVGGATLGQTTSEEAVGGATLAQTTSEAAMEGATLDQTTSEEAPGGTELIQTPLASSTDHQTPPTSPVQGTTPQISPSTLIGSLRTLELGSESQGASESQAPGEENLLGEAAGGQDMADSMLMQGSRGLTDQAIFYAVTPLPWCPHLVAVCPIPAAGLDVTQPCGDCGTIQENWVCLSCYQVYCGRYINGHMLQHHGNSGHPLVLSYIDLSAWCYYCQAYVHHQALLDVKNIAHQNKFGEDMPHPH

Row | IC50 (HDAC1) [nM] | IC50 (HDAC6 human recombinant) [nM] | SMILES
1 | > 10000 | 69 | CCCCN1CCN(c2ccc3c(c2)C(C)(C)C(=O)N(Cc2ccc(-c4nnc(C(F)F)o4)cn2)C3=O)CC1 [Compound 147, 6-(4-butylpiperazine-1-yl)-2-((5-(5-(difluoromethyl)-1,3,4-oxadiazole-2-yl)pyridine-2-yl)methyl)-4,4-dimethylisoquinoline-1,3(2H,4H)-dione]
2 | > 10000 | 22 | CC1(C)C(=O)N(Cc2ccc(-c3nnc(C(F)F)o3)cn2)C(=O)c2ccc(N3CC4(COC4)C3)cc21 [Compound 40, 2-((5-(5-(difluoromethyl)-1,3,4-oxadiazole-2-yl)pyridine-2-yl)methyl)-4,4-dimethyl-6-(2-oxa-6-azaspiro[3.3]heptane-6-yl)isoquinoline-1,3(2H,4H)-dione]
3 | > 10000 | 17 | CC(=O)N1CCC(c2ccc3c(c2)C(=O)N(Cc2ccc(-c4nnc(C(F)F)o4)cn2)C(=O)C3(C)C)CC1 [Compound 127, 7-(1-acetylpiperidine-4-yl)-2-((5-(5-(difluoromethyl)-1,3,4-oxadiazole-2-yl)pyridine-2-yl)methyl)-4,4-dimethylisoquinoline-1,3(2H,4H)-dione]
4 | > 10000 | 59 | CC1(C)C(=O)N(Cc2ccc(-c3nnc(C(F)F)o3)cn2)C(=O)c2c(-c3ccoc3)cccc21 [Compound 95, 2-((5-(5-(difluoromethyl)-1,3,4-oxadiazole-2-yl)pyridine-2-yl)methyl)-8-(furan-3-yl)-4,4-dimethylisoquinoline-1,3(2H,4H)-dione]
5 | > 10000 | 35 | Cn1c(=O)n(Cc2ccc(-c3nnc(C(F)F)o3)cn2)c(=O)c2cc(-c3ccncc3)ccc21 [Compound 92, 3-((5-(5-(difluoromethyl)-1,3,4-oxadiazole-2-yl)pyridine-2-yl)methyl)-1-methyl-6-(pyridine-4-yl)quinazoline-2,4(1H,3H)-dione]
6 | > 10000 | 51 | CC1(C)C(=O)N(Cc2ccc(-c3nnc(C(F)F)o3)cn2)C(=O)c2ccc(N3CCN(C4CCC(F)(F)CC4)CC3)cc21 [Compound 150, 6-(4-(4,4-difluorocyclohexyl)piperazine-1-yl)-2-((5-(5-(difluoromethyl)-1,3,4-oxadiazole-2-yl)pyridine-2-yl)methyl)-4,4-dimethylisoquinoline-1,3(2H,4H)-dione]
7 | > 10000 | 38 | CC1(C)C(=O)N(Cc2ccc(-c3nnc(C(F)F)o3)cn2)C(=O)c2ccc(C3=CCN(C4COC4)CC3)cc21 [Compound 43, 2-((5-(5-(difluoromethyl)-1,3,4-oxadiazole-2-yl)pyridine-2-yl)methyl)-4,4-dimethyl-6-(1-(oxetan-3-yl)-1,2,3,6-tetrahydropyridine-4-yl)isoquinoline-1,3(2H,4H)-dione]
8 | > 10000 | 185 | CCN1CC=C(c2ccc3c(c2)C(C)(C)C(=O)N(Cc2ncc(-c4nnc(C(F)F)o4)cn2)C3=O)CC1 [Compound 155, 2-((5-(5-(difluoromethyl)-1,3,4-oxadiazole-2-yl)pyrimidine-2-yl)methyl)-6-(1-ethyl-1,2,3,6-tetrahydropyridine-4-yl)-4,4-dimethylisoquinoline-1,3(2H,4H)-dione]
9 | > 10000 | 30 | CCCN1CCN(c2ccc3c(c2)C(=O)N(Cc2ccc(-c4nnc(C(F)F)o4)cn2)C(=O)C3(C)C)CC1 [Compound 130, 2-((5-(5-(difluoromethyl)-1,3,4-oxadiazole-2-yl)pyridine-2-yl)methyl)-4,4-dimethyl-7-(4-propylpiperazine-1-yl) isoquinoline-1,3(2H,4H)-dione]
10 | > 10000 | 156 | CCCCCN1CCN(c2ccc3c(c2)C(C)(C)C(=O)N(Cc2ccc(-c4nnc(C(F)F)o4)cn2)C3=O)CC1 [Compound 45, 2-((5-(5-(difluoromethyl)-1,3,4-oxadiazole-2-yl)pyridine-2-yl)methyl)-4,4-dimethyl-6-(4-pentylpiperazine-1-yl)isoquinoline-1,3(2H,4H)-dione]

Row | SMILES | IC50 (HDAC1) [nM] | IC50 (HDAC6 human recombinant) [nM]
11 | O=c1c2ccccc2n(CCN2CCOCC2)c(=O)n1Cc1ccc(-c2nnc(C(F)F)o2)cn1 [Compound 20, 3-((5-(5-(difluoromethyl)-1,3,4-oxadiazole-2-yl)pyridine-2-yl)methyl)-1-(2-morpholinoethyl)quinazoline-2,4(1H,3H)-dione] | > 10000 | 159
